Data taken from patent US7741341B2, “Benzimidazole-derivatives as factor Xa inhibitors” (sanofi-aventis Deutschland GmbH, priority 2003, dated 2010).

Molecular target: T1, human factor Xa (Homo sapiens, UniProt P00742)
T1 construct: human factor Xa (Enzyme Research Laboratories, Inc; South Bend, Ind.); purchased Enzyme Research Laboratories, Inc; South Bend, Ind
Assay: Factor Xa assay (chromogenic, substrate S-2765)
Format: biochemical
Details: read-out: Ki(FXa)
Protocol: Purified enzymes were used in chromogenic assays.
The IC50 was determined by combining in appropriate wells of a Costar half-area microtiter plate 25 μl human factor Xa (Enzyme Research Laboratories, Inc.; South Bend, Ind.) in TBS-PEG; 40 μl 10% (v/v) DMSO in TBS-PEG (uninhibited control) or various concentrations of the compound to be tested diluted in 10% (v/v) DMSO in TBS-PEG; and substrate S-2765 (N(α)-benzyloxycarbonyl-D-Arg-Gly-L-Arg-p-nitroanilide; Kabi Pharmacia, Inc.; Franklin, Ohio) in TBS-PEG.
The assay was performed by pre-incubating the compound of formula I plus enzyme for 10 min. Then the assay was initiated by adding substrate to obtain a final volume of 100 μl. […] The enzyme concentration was 0.5 nM and substrate concentration was 140 μM.

T1 sequence (P00742 235-488 limits assumed): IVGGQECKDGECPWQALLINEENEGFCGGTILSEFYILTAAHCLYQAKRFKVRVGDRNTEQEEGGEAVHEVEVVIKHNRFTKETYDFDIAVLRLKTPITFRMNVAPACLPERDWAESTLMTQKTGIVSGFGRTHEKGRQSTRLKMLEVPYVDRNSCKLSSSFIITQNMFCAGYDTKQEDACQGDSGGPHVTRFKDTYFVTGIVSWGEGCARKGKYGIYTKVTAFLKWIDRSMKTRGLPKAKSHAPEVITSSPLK
T1 sequence (P00742 41-179 partner limits assumed): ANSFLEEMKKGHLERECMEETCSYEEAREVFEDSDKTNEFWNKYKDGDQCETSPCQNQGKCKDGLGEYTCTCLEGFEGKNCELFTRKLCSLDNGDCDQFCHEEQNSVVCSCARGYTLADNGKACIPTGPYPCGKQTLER

A Ki of 0.7 nM was found for `CC(C)N1CCC(NC(=O)c2nc3ccccc3n2Cc2cc(-c3ccc(Cl)s3)on2)CC1` [Example 1, 1-[5-(5-Chloro-thiophen-2-yl)-isoxazol-3-ylmethyl]-1H-benzoimidazole-2-carboxylic acid (1-isopropyl-piperidin-4-yl)-amide] in this work.
A Ki of 3.1 nM was found for `CC(C)N1CCC(NC(=O)c2nc3ccccc3n2CC(=O)Nc2ccc(Cl)cc2)CC1` [Example 2, 1-[(4-Chloro-phenylcarbamoyl)-methyl]-1H-benzoimidazole-2-carboxylic acid (1-isopropyl-piperidin-4-yl)-amide] in this work.
A Ki of 1.4 nM was found for `CC(C)N1CCC(NC(=O)c2nc3ccccc3n2CC(=O)Nc2ccc(Cl)cn2)CC1` [Example 3, 1-[(5-Chloro-pyridin-2-ylcarbamoyl)-methyl]-1H-benzoimidazole-2-carboxylic acid (1-isopropyl-piperidin-4-yl)-amide] in this work.
A Ki of 59.2 nM was found for `O=C(NC1CCN(c2ccncn2)CC1)c1nc2ccccc2n1Cc1cc(-c2ccc(Cl)s2)on1` [Example 4, 1-[5-(5-Chloro-thiophen-2-yl)-isoxazol-3-ylmethyl]-1H-benzoimidazole-2-carboxylic acid (1-pyrimidin-4-yl-piperidin-4-yl)-amide] in this work.
A Ki of 2.5 nM was found for `COC(=O)c1ccc2c(c1)nc(C(=O)NC1CCN(C(C)C)CC1)n2Cc1cc(-c2ccc(Cl)s2)on1` [Example 5a, 1-[5-(5-Chloro-thiophen-2-yl)-isoxazol-3-ylmethyl]-2-(1-isopropyl-piperidin-4-ylcarbamoyl)-1H-benzoimidazole-5-carboxylic acid methyl ester] in this work.
A Ki of 175 nM was found for `COC(=O)c1ccc2nc(C(=O)NC3CCN(C(C)C)CC3)n(Cc3cc(-c4ccc(Cl)s4)on3)c2c1` [Example 5b, 3-[5-(5-Chloro-thiophen-2-yl)-isoxazol-3-ylmethyl]-2-(1-isopropyl-piperidin-4-ylcarbamoyl)-3H-benzoimidazole-5-carboxylic acid methyl ester] in this work.
A Ki of 3 nM was found for `CC(C)N1CCC(NC(=O)c2nc3cc(C(=O)O)ccc3n2Cc2cc(-c3ccc(Cl)s3)on2)CC1` [Example 6, 1-[5-(5-Chloro-thiophen-2-yl)-isoxazol-3-ylmethyl]-2-(1-isopropyl-piperidin-4-ylcarbamoyl)-1H-benzoimidazole-5-carboxylic acid] in this work.
A Ki of 16.5 nM was found for `CC(C)N1CCC(NC(=O)c2nc3ccc(C(=O)O)cc3n2Cc2cc(-c3ccc(Cl)s3)on2)CC1` [Example 7, 3-[5-(5-Chloro-thiophen-2-yl)-isoxazol-3-ylmethyl]-2-(1-isopropyl-piperidin-4-ylcarbamoyl)-3H-benzoimidazole-5-carboxylic acid] in this work.
A Ki of 94 nM was found for `CC(C)N1CCC(NC(=O)c2nc3cc(C(=O)O)ccc3n2Cc2cnc(-c3ccc(Cl)s3)s2)CC1` [Example 9, 1-[2-(5-Chloro-thiophen-2-yl)-thiazol-5-ylmethyl]-2-(1-isopropyl-piperidin-4-ylcarbamoyl)-1H-benzoimidazole-5-carboxylic acid] in this work.
A Ki of 4 nM was found for `COC(=O)c1cccc2c1nc(C(=O)NC1CCN(C(C)C)CC1)n2Cc1cc(-c2ccc(Cl)s2)on1` [Example 11a, 1-[5-(5-Chloro-thiophen-2-yl)-isoxazol-3-ylmethyl]-2-(1-isopropyl-piperidin-4-ylcarbamoyl)-1H-benzoimidazole-4-carboxylic acid methyl ester] in this work.
A Ki of 1 nM was found for `COC(=O)c1cccc2nc(C(=O)NC3CCN(C(C)C)CC3)n(Cc3cc(-c4ccc(Cl)s4)on3)c12` [Example 11b, 3-[5-(5-Chloro-thiophen-2-yl)-isoxazol-3-ylmethyl]-2-(1-isopropyl-piperidin-4-ylcarbamoyl)-3H-benzoimidazole-4-carboxylic acid methyl ester] in this work.
A Ki of 3 nM was found for `CC(C)N1CCC(NC(=O)c2nc3c(C(=O)O)cccc3n2Cc2cc(-c3ccc(Cl)s3)on2)CC1` [Example 12, 1-[5-(5-Chloro-thiophen-2-yl)-isoxazol-3-ylmethyl]-2-(1-isopropyl-piperidin-4-ylcarbamoyl)-1H-benzoimidazole-4-carboxylic acid] in this work.
A Ki of 299 nM was found for `CC(C)N1CCC(NC(=O)c2nc3cccc(C(=O)O)c3n2Cc2cc(-c3ccc(Cl)s3)on2)CC1` [Example 13, 3-[5-(5-Chloro-thiophen-2-yl)-isoxazol-3-ylmethyl]-2-(1-isopropyl-piperidin-4-ylcarbamoyl)-3H-benzoimidazole-4-carboxylic acid] in this work.
A Ki of 2390 nM was found for `CC(C)N1CCC(NC(=O)c2nc3cccnc3n2Cc2cc(-c3ccc(Cl)s3)on2)CC1` [Example 14, 3-[5-(5-Chloro-thiophen-2-yl)-isoxazol-3-ylmethyl]-3H-imidazo[4,5-b]pyridine-2-carboxylic acid (1-isopropyl-piperidin-4-yl)-amide] in this work.
A Ki of 11.5 nM was found for `COC(=O)c1cccc2c1nc(C(=O)NC1CCN(C(C)C)CC1)n2CC(=O)Nc1ccc(Cl)cn1` [Example 15, 1-[(5-Chloro-pyridin-2-ylcarbamoyl)-methyl]-2-(1-isopropyl-piperidin-4-ylcarbamoyl)-1H-benzoimidazole-4-carboxylic acid methyl ester] in this work.
A Ki of 11 nM was found for `CC(C)N1CCC(NC(=O)c2nc3c(C(=O)O)cccc3n2CC(=O)Nc2ccc(Cl)cn2)CC1` [Example 16, 1-[(5-Chloro-pyridin-2-ylcarbamoyl)-methyl]-2-(1-isopropyl-piperidin-4-ylcarbamoyl)-1H-benzoimidazole-4-carboxylic acid] in this work.
A Ki of 19.5 nM was found for `COC(=O)c1ccc2c(c1)nc(C(=O)NC1CCN(C(C)C)CC1)n2CC(=O)Nc1ccc(Cl)cn1` [Example 17a, 1-[(5-Chloro-pyridin-2-ylcarbamoyl)-methyl]-2-(1-isopropyl-piperidin-4-ylcarbamoyl)-1H-benzoimidazole-5-carboxylic acid methyl ester] in this work.
A Ki of 371 nM was found for `COC(=O)c1ccc2nc(C(=O)NC3CCN(C(C)C)CC3)n(CC(=O)Nc3ccc(Cl)cn3)c2c1` [Example 17b, 3-[(5-Chloro-pyridin-2-ylcarbamoyl)-methyl]-2-(1-isopropyl-piperidin-4-ylcarbamoyl)-3H-benzoimidazole-5-carboxylic acid methyl ester] in this work.
A Ki of 22.5 nM was found for `CC(C)N1CCC(NC(=O)c2nc3cc(C(=O)O)ccc3n2CC(=O)Nc2ccc(Cl)cn2)CC1` [Example 18, 1-[(5-Chloro-pyridin-2-ylcarbamoyl)-methyl]-2-(1-isopropyl-piperidin-4-ylcarbamoyl)-1H-benzoimidazole-5-carboxylic acid] in this work.
A Ki of 23.5 nM was found for `CC(C)N1CCC(NC(=O)c2nc3ccc(C(=O)O)cc3n2CC(=O)Nc2ccc(Cl)cn2)CC1` [Example 19, 3-[(5-Chloro-pyridin-2-ylcarbamoyl)-methyl]-2-(1-isopropyl-piperidin-4-ylcarbamoyl)-3H-benzoimidazole-5-carboxylic acid] in this work.
A Ki of 8.5 nM was found for `CCOC(=O)OC(C)OC(=O)c1cccc2c1nc(C(=O)NC1CCN(C(C)C)CC1)n2Cc1cc(-c2ccc(Cl)s2)on1` (stereo not drawn) [Example 20, 1-[5-(5-Chloro-thiophen-2-yl)-isoxazol-3-ylmethyl]-2-(1-isopropyl-piperidin-4-ylcarbamoyl)-1H-benzoimidazole-4-carboxylic acid 1-ethoxycarbonyloxy-ethyl ester] in this work.
A Ki of 31 nM was found for `CC(OC(=O)OC1CCCCC1)OC(=O)c1cccc2c1nc(C(=O)NC1CCN(C(C)C)CC1)n2Cc1cc(-c2ccc(Cl)s2)on1` (stereo not drawn) [Example 21, 1-[5-(5-Chloro-thiophen-2-yl)-isoxazol-3-ylmethyl]-2-(1-isopropyl-piperidin-4-ylcarbamoyl)-1H-benzoimidazole-4-carboxylic acid 1-cyclohexyloxycarbonyloxy-ethyl ester] in this work.
A Ki of 0.7 nM was found for `CC(C)N1CCC(NC(=O)c2nc3c(C(=O)NCCO)cccc3n2Cc2cc(-c3ccc(Cl)s3)on2)CC1` [Example 22, 1-[5-(5-Chloro-thiophen-2-yl)-isoxazol-3-ylmethyl]-1H-benzoimidazole-2,4-dicarboxylic acid 4-[(2-hydroxy-ethyl)-amide] 2-[(1-isopropyl-piperidin-4-yl)-amide]] in this work.
A Ki of 8 nM was found for `CC(C)N1CCC(NC(=O)c2nc3c(C(=O)N4CC(O)C4)cccc3n2Cc2cc(-c3ccc(Cl)s3)on2)CC1` [Example 23, 1-[5-(5-Chloro-thiophen-2-yl)-isoxazol-3-ylmethyl]-4-(3-hydroxy-azetidine-1-carbonyl)-1H-benzoimidazole-2-carboxylic acid (1-isopropyl-piperidin-4-yl)-amide] in this work.
A Ki of 26 nM was found for `CC(C)N1CCC(NC(=O)c2nc3c(C(=O)N(C)CCO)cccc3n2Cc2cc(-c3ccc(Cl)s3)on2)CC1` [Example 24, 1-[5-(5-Chloro-thiophen-2-yl)-isoxazol-3-ylmethyl]-1H-benzoimidazole-2,4-dicarboxylic acid 4-[(2-hydroxy-ethyl)-methyl-amide] 2-[(1-isopropyl-piperidin-4-yl)-amide]] in this work.
A Ki of 65 nM was found for `CC(C)N1CCC(NC(=O)c2nc3cc(C(=O)N(C)CCO)ccc3n2Cc2cc(-c3ccc(Cl)s3)on2)CC1` [Example 25, 1-[5-(5-Chloro-thiophen-2-yl)-isoxazol-3-ylmethyl]-1H-benzoimidazole-2,5-dicarboxylic acid 5-[(2-hydroxy-ethyl)-methyl-amide] 2-[(1-isopropyl-piperidin-4-yl)-amide]] in this work.
A Ki of 18.5 nM was found for `CC(C)N1CCC(NC(=O)c2nc3cc(C(=O)N4CC(O)C4)ccc3n2Cc2cc(-c3ccc(Cl)s3)on2)CC1` [Example 26, 1-[5-(5-Chloro-thiophen-2-yl)-isoxazol-3-ylmethyl]-5-(3-hydroxy-azetidine-1-carbonyl)-1H-benzoimidazole-2-carboxylic acid (1-isopropyl-piperidin-4-yl)-amide] in this work.
